Laboratory results published in article PMC5018964, “Visualization and ligand-induced modulation of dopamine receptor dimerization at the single molecule level” (Scientific Reports, 2016).

What was measured:
human D2L = target: T1, human D2L (Homo sapiens, UniProt P14416); experiment: [3H]spiperone competition/saturation binding, membranes of CHO cells expressing human D2L; details: [³H]spiperone competition, CHO cell membranes; read-out: Ki ± s.d. hD2L
T1 construct: expressed in transfected cells

human D2S = target: T2, human D2S (Homo sapiens, UniProt P14416); experiment: [3H]spiperone competition/saturation binding, membranes of CHO cells expressing human D2S; details: [³H]spiperone competition, CHO cell membranes; read-out: Ki ± s.d. hD2S
T2 construct: expressed in transfected cells

human D3 = target: T3, human D3 (Homo sapiens, UniProt P35462); experiment: [3H]spiperone competition/saturation binding, membranes of CHO cells expressing human D3; details: [³H]spiperone competition, CHO cell membranes; read-out: Ki ± s.d. hD3
T3 construct: expressed in transfected cells

SNAP-D2L receptor = target: T4, SNAP-D2L receptor (Homo sapiens, UniProt P14416); experiment: Single-molecule TIRF-M of SNAP-D2L receptors in CHO cells with ligands (dimerization, mobility, colocalization); assay type: cell-based; details: for fraction of dimers / Average Dlat 24°C (average lateral diffusion coefficient) / Density (spots µm-2): SNAP-D2L in CHO cells; for fraction of dimers: 10-fold Ki, ligand-free 30%; for Average Dlat 24°C (average lateral diffusion coefficient) / Density (spots µm-2): mean ± s.d.; for mean apparent colocalization lifetime τ of two receptors in a dimer: SNAP-D2L incubated with ligand, one-phase exponential decay fit, 120 trajectories, ligand free 0.46 s; for effect on monomer/dimer ratio and mobility of the SNAP-D2L receptor compared to ligand-free conditions: Alexa546-labeled SNAP-D2L in CHO cells incubated with ligand
T4 construct: expressed in transfected cells
Procedure: 24 h before the TIRF-experiment dried and cleaned glass slides were placed in a 12 well plate and were coated by incubation with 20 μg ml^−1 fibronectin (Sigma–Aldrich) in sterile PBS for 1 h at 37 °C. After coating, fibronectin was aspirated and the glass surface was rinsed one time with sterile PBS. CHO cells expressing SNAP-D2L, SNAP-CD86, SNAP-CD28, D2L, D2S or D3 receptors were seeded on coated glass slides in phenol-red-free DMEM/F12 supplemented with 10% FCS and were allowed to adhere overnight at 37 °C and 5% CO2.
Subsequently, cells were washed three times with phenol red-free DMEM/F12 supplemented with 10% FBS, each time followed by 5 min incubation at 37 °C.
For the ligand treatment experiments, the indicated concentration of the corresponding ligand in phenol red-free DMEM/F12 supplemented with 10% FBS were added to stably transfected CHO cells, which were ready for imaging, for 1 h before imaging.
Subsequently after labeling, cells were washed three times with phenol red-free DMEM/F12 supplemented with 10% FBS. […] Finally the imaging chamber was refilled with fresh imaging buffer and mounted immediately on a microscope stage for TIRF-M imaging.
The microscope control and image acquisition were performed by the NIS Elements software (Nikon Instruments). To ensure homogenous illumination, only the central quarter of the chip (300 × 300 pixel) was used for imaging analysis.
The image analysis procedures have been described in detail previously. An automated single particle tracking (ASPT) algorithm[58] implemented in custom-written software, GMimPro (www.mashanov.uk), was used to identify and track individual fluorescent spots on sequential video frames. ASPT settings used were FWHM300nm, R5, L20, Q10 and C999. Output from this image analysis gave fluorophore centroid positions (with 25 nm precision), integrated fluorophore intensities, total fluorophore number and trajectory lifetime. Spatial trajectories and intensity trajectories (i.e. intensities vs. time) were then further analysed to determine: the lateral diffusion coefficient, Dlat, which was derived from averaged mean squared displacement (MSD) versus time interval (δt), the average fluorescent spot density (spot μm^−^2) and distribution across the cell membrane and the intensity distribution of individual fluorescent spots and intensity fluctuation with time as well as the lifetime of colocalization. The Dlat was measured for each cell separately and the average value (average Dlat, mean ± standard deviation (s.d.)) was calculated for an indicated number of cells. Slow-moving objects Dlat < 0.02 μm^2 s^−1 were excluded from the analysis and only cells with a mobile trajectory fraction (trajectories with a Dlat > 0.02 μm^2 s^−1) over 0.75 were used for further analysis. Intensity distributions of fluorescent spots identified over the first 10-frame time window of TIRF illumination were fitted with a sum of Gaussian distributions (with standard deviation proportional to square root of intensity level) using the PRISM routine. The ratio of the areas under the Gaussian curves was calculated to give the percentage of the underlying component. Unpaired two-tailed Student´s t-tests were used for statistical significance.

SNAP-D2L receptors = SNAP-D2L receptors (Homo sapiens, UniProt P14416+P16455, A127T/A154D/C150Q/C62A/E30R/G131K/G132T/G153L/K125A/K32I/L33F/M134L/N157G/Q115S/Q116H/R128A/R135S/S151G/S152D/S159E); experiment: [3H]spiperone competition/saturation binding, membranes of CHO cells expressing SNAP-D2L
Sequence of SNAP-D2L receptors (P16455+P14416 fused with the stated changes): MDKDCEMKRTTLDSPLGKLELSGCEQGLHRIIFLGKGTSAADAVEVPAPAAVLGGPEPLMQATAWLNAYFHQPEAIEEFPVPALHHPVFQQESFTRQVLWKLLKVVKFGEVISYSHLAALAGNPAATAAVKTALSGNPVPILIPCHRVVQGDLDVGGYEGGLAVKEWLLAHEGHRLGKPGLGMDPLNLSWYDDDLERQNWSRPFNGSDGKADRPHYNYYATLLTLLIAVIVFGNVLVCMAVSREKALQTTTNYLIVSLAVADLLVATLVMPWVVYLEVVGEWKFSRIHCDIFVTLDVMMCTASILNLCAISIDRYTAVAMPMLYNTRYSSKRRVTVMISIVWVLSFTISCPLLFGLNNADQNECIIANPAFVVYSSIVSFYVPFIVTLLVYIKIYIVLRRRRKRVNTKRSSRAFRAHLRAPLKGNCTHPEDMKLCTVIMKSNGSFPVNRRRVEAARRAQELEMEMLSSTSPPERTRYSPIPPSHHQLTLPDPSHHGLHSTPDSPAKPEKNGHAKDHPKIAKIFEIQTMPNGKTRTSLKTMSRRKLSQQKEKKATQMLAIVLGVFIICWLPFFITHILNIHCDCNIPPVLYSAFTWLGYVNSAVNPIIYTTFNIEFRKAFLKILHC
Procedure: Membrane preparations were obtained using the methods described previously[50]. […] The homogenized membranes were shock-frozen in liquid nitrogen and stored at −80 °C until usage. The protein concentration was determined by the Lowry method[51] using bovine serum albumin as a standard.
Receptor binding studies were carried out as described previously[27][50][52]. […] The Ki values for the compounds were obtained by competition experiments.
Analysis of the saturation experiments were performed using a nonlinear regression analysis of the data for the determination of KD and Bmax values using PRISM (GraphPad Software). Competition curves were fitted to a sigmoid curve by nonlinear regression analysis in which the log IC50 value and the Hill coefficient were free parameters. IC50 values were transformed to Ki values according to the equation of Cheng and Prusoff [53].

[1] = target: the molecule itself; experiment: single-molecule TIRF microscopy (intensity distribution of fluorescent spots); receptors on living CHO cells labelled 1 h at 37 °C with a fluorescent (Cy3B) antagonist (1c, 4a or 4b) at 10-fold Ki; spots fitted with a mixed Gaussian model
[2] = target: T5, human dopamine D2L receptor (wild type, non-tagged) (human), P14416; experiment: as above; details: remark: other sources report otherwise
T5 chain: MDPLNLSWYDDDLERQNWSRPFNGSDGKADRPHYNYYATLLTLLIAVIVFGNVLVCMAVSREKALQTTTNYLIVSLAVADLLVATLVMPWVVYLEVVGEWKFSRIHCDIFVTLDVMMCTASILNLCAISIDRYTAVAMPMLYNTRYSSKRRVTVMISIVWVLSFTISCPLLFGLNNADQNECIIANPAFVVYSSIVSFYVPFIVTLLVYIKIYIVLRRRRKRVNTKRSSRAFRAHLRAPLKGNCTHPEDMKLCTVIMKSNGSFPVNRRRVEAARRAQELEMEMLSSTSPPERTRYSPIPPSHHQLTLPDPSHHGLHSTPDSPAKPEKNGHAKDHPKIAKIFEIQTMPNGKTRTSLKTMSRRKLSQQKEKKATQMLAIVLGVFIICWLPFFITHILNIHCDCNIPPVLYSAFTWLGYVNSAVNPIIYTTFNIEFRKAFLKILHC

[3] = target: T5, human dopamine D2L receptor (wild type, …); experiment: single-molecule TIRF microscopy (intensity distribution of fluorescent spots); receptors on living CHO cells labelled 1 h at room temperature with a fluorescent (Cy3B) agonist (5a or 5b) at 10-fold Ki; spots fitted with a mixed Gaussian model; details: remark: other sources report otherwise
[4] = 10 x Ki value labeling concentration
[5] = 100 x Ki value labeling concentration

Molecule: COc1cc(CN2CCN(c3ccccc3OC)CC2)ccc1OCCCc1cn(CCCCCCCCn2cc(CCCOc3ccc(CN4CCN(c5ccccc5OC)CC4)cc3OC)nn2)nn1 [2a]
- Ki (human D2L): 22 ± 6.7 nM
- Ki (human D2S): 41 ± 19 nM
- Ki (human D3): 84 ± 24 nM
- fraction of dimers (SNAP-D2L receptor): 66%
- Average Dlat 24°C (average lateral diffusion coefficient) (SNAP-D2L receptor; [4]): 0.074 ± 0.004 µm² s-1
- Density (spots µm-2) (SNAP-D2L receptor; [4]): 0.65 ± 0.04 spots µm-2
- Average Dlat 24°C (average lateral diffusion coefficient) (SNAP-D2L receptor; [5]): 0.075 ± 0.005 µm² s-1
- Density (spots µm-2) (SNAP-D2L receptor; [5]): 0.65 ± 0.04 spots µm-2
- mean apparent colocalization lifetime τ of two receptors in a dimer (SNAP-D2L receptor): 1.16 s
- Ki (SNAP-D2L receptors): 20 ± 7.1 nM

Molecule: CCCCn1cc(CCCOc2ccc(CN3CCN(c4ccccc4OC)CC3)cc2OCCCCN)nn1 [1b]
- Ki (human D2L): 15 ± 8 nM
- Ki (human D2S): 18 ± 5.7 nM
- Ki (human D3): 70 ± 24 nM
- effect on monomer/dimer ratio and mobility of the SNAP-D2L receptor compared to ligand-free conditions (SNAP-D2L receptor): no effect
- Average Dlat 24°C (average lateral diffusion coefficient) (SNAP-D2L receptor; [4]): 0.085± 0.004 µm² s-1
- Density (spots µm-2) (SNAP-D2L receptor; [4]): 0.66 ± 0.04 spots µm-2
- Average Dlat 24°C (average lateral diffusion coefficient) (SNAP-D2L receptor; [5]): 0.081 ± 0.006 µm² s-1
- Density (spots µm-2) (SNAP-D2L receptor; [5]): 0.69 ± 0.04 spots µm-2
- Ki (SNAP-D2L receptors): 4.8 ± 0.28 nM

Molecule: COc1ccccc1N1CCN(Cc2ccc(OCCCc3cn(CCCCCCCCn4cc(CCCOc5ccc(CN6CCN(c7ccccc7OC)CC6)cc5OCCCCN)nn4)nn3)c(OCCCCN)c2)CC1 [2b]
- Ki (human D2L): 3 ± 0.29 nM
- Ki (human D2S): 3 ± 0.92 nM
- Ki (human D3): 2.6 ± 0.64 nM
- fraction of dimers (SNAP-D2L receptor): 58%
- Average Dlat 24°C (average lateral diffusion coefficient) (SNAP-D2L receptor; [4]): 0.075 ± 0.004 µm² s-1
- Density (spots µm-2) (SNAP-D2L receptor; [4]): 0.64 ± 0.04 spots µm-2
- Average Dlat 24°C (average lateral diffusion coefficient) (SNAP-D2L receptor; [5]): 0.071 ± 0.05 µm² s-1
- Density (spots µm-2) (SNAP-D2L receptor; [5]): 0.67 ± 0.02 spots µm-2
- Ki (SNAP-D2L receptors): 2.4 ± 1.1 nM

Molecule: COc1cc(CN2CCN(c3ccccc3OC)CC2)ccc1OCCCc1cn(CCCCCCCCn2cc(CCCOc3ccc(CN4CCN(C5CCCCC5)CC4)cc3OC)nn2)nn1 [3b]
- Ki (human D2L): 19 ± 8.2 nM
- Ki (human D2S): 17 ± 8.1 nM
- Ki (human D3): 100 ± 33 nM
- Average Dlat 24°C (average lateral diffusion coefficient) (SNAP-D2L receptor; [4]): 0.083 ± 0.005 µm² s-1
- Density (spots µm-2) (SNAP-D2L receptor; [4]): 0.68 ± 0.04 spots µm-2

Molecule: COc1cc(CN2CCN(C)CC2)ccc1OCCCc1cn(CCCCCCCCn2cc(CCCOc3ccc(CN4CCN(c5ccccc5OC)CC4)cc3OC)nn2)nn1 [3a]
- Ki (human D2L): 9.8 ± 9.8 nM
- Ki (human D2S): 7.3 ± 1.3 nM
- Ki (human D3): 220 ± 83 nM
- Average Dlat 24°C (average lateral diffusion coefficient) (SNAP-D2L receptor; [4]): 0.083 ± 0.004 µm² s-1
- Density (spots µm-2) (SNAP-D2L receptor; [4]): 0.67 ± 0.03 spots µm-2

Molecule: CCCCn1cc(CCCOc2ccc(CN3CCN(c4ccccc4OC)CC3)cc2OC)nn1 [1a]
- Ki (human D2L): 67 ± 33 nM
- Ki (human D2S): 53 ± 37 nM
- Ki (human D3): 615 ± 370 nM
- effect on monomer/dimer ratio and mobility of the SNAP-D2L receptor compared to ligand-free conditions (SNAP-D2L receptor): no effect
- Average Dlat 24°C (average lateral diffusion coefficient) (SNAP-D2L receptor; [4]): 0.087 ± 0.003 µm² s-1
- Density (spots µm-2) (SNAP-D2L receptor; [4]): 0.68 ± 0.04 spots µm-2
- Average Dlat 24°C (average lateral diffusion coefficient) (SNAP-D2L receptor; [5]): 0.083 ± 0.005 µm² s-1
- Density (spots µm-2) (SNAP-D2L receptor; [5]): 0.69 ± 0.03 spots µm-2
- mean apparent colocalization lifetime τ of two receptors in a dimer (SNAP-D2L receptor): 0.42 s
- Ki (SNAP-D2L receptors): 280 ± 190 nM

B1: human dopamine D2S receptor (receptor, UniProt P14416-2 1-414, looked up)
chain: MDPLNLSWYDDDLERQNWSRPFNGSDGKADRPHYNYYATLLTLLIAVIVFGNVLVCMAVSREKALQTTTNYLIVSLAVADLLVATLVMPWVVYLEVVGEWKFSRIHCDIFVTLDVMMCTASILNLCAISIDRYTAVAMPMLYNTRYSSKRRVTVMISIVWVLSFTISCPLLFGLNNADQNECIIANPAFVVYSSIVSFYVPFIVTLLVYIKIYIVLRRRRKRVNTKRSSRAFRAHLRAPLKEAARRAQELEMEMLSSTSPPERTRYSPIPPSHHQLTLPDPSHHGLHSTPDSPAKPEKNGHAKDHPKIAKIFEIQTMPNGKTRTSLKTMSRRKLSQQKEKKATQMLAIVLGVFIICWLPFFITHILNIHCDCNIPPVLYSAFTWLGYVNSAVNPIIYTTFNIEFRKAFLKILHC
notes: human dopamine D2S receptor (short form of the D2 receptor), non-tagged; source: CHO-K1, stably expressing, in the membrane of living cells
- stoichiometry N [1]: 2

B2: human dopamine D3 receptor (receptor, UniProt P35462 1-400, looked up)
chain: MASLSQLSGHLNYTCGAENSTGASQARPHAYYALSYCALILAIVFGNGLVCMAVLKERALQTTTNYLVVSLAVADLLVATLVMPWVVYLEVTGGVWNFSRICCDVFVTLDVMMCTASILNLCAISIDRYTAVVMPVHYQHGTGQSSCRRVALMITAVWVLAFAVSCPLLFGFNTTGDPTVCSISNPDFVIYSSVVSFYLPFGVTVLVYARIYVVLKQRRRKRILTRQNSQCNSVRPGFPQQTLSPDPAHLELKRYYSICQDTALGGPGFQERGGELKREEKTRNSLSPTIAPKLSLEVRKLSNGRLSTSLKLGPLQPRGVPLREKKATQMVAIVLGAFIVCWLPFFLTHVLNTHCQTCHVSPELYSATTWLGYVNSALNPVIYTTFNIEFRKAFLKILSC
notes: human dopamine D3 receptor, non-tagged; source: dihydrofolate reductase gene-deficient CHO-K1 cells, stably expressing, in the membrane of living cells
- stoichiometry N [1]: 2

B3: human dopamine D2L receptor (wild type, non-tagged), P14416 1-443 (receptor)
chain: T5 chain
- percent of fluorescent spots that are dimers, labelled with antagonist 1c [2]: 29%
- percent of fluorescent spots that are dimers, labelled with antagonist 4a [2]: 30%
- percent of fluorescent spots that are dimers, labelled with antagonist 4b [2]: 29%
- percent of fluorescent spots that are monomers, labelled with antagonist 1c [2]: 71%
- percent of fluorescent spots that are monomers, labelled with antagonist 4a [2]: 70%
- stoichiometry N [2]: 2
- percent of fluorescent spots that are dimers, labelled with agonist 5a [3]: 45%
- percent of fluorescent spots that are dimers, labelled with agonist 5b [3]: 42%
